This note sets out measurements from patent publication US20100069297A1, “Selective Inhibition of TLR4 Signaling” (priority 2005, published 2010).

Holding throughout (assay type): cell-based, mouse
For experiment [1], the system named is TLR4 signaling (LPS-induced IL-1β, MIP-1β, IFN-β, RANTES mRNA). Description: LPS-induced gene expression in primary murine macrophages, real-time PCR. The note with it: for inhibitory effect on LPS-induced expression of IL-1β, MIP-1β, IFN-β and RANTES mRNA: 40 μM BP, 1 h preincubation, 10 ng/ml LPS, mRNA 1 h after LPS. As to the method:
FIG. 1. Effect of blocking peptides on the cytokine induction by LPS. Thioglycollate-elicited primary murine macrophages were preincubated in the presence of 40 μMof BP for one hour before stimulation with 10 ng/ml of LPS. (A) Quantitative real-time PCR analysis of gene expression. (B) Secretion of IL-1β and IL-6. Concentration of the cytokines was measured after overnight incubation of the cells in the presence of LPS and the peptides. (C) Sensitivity of the LPS-stimulated expression of IFN-β and IL-1β mRNA to varying concentrations of TRAM and MyD88 BP. Total mRNA was isolated 1 hour after LPS stimulation (A and C). *p<0.05; **p<0.01.
FIG. 6. Effect of mutant TRAM BB loop peptides on LPS-induced activation of IL1-β and IFN-β mRNA. Details of the experiments are as described in the legend for FIG. 1, except for the cells were preincubated with peptides only for 30 minutes.
C3H/OuJ mice were purchased from the Jackson Laboratory (Bar Harbor, Me.). Thioglycollate-elicited peritoneal macrophages were harvested and cultured in the presence of E. coli K235 LPS or Pam3Cys as described previously (Salkowski et al., 1999, J. Immunol. 164, 1529).
(§1) Total cellular RNA was extracted from macrophage cultures as described elsewhere and reversed transcribed using AMV Reverse Transcriptase (Promega, Madison, Wis.) and poly-T priming as recommended by the manufacturer. The resulting cDNA was quantified by real time PCR using SYBR Green PCR Master Mix (Applied Biosystems) and ABI Prism 7900HT cycler. Primers for detection of IL-1β, IFN-β, MIP-1β, […]RANTES, and HPRT mRNAs were designed using the Primer Express 2.0 program (Applied Biosystems). Relative gene expression was calculated using ΔCt method with HPRT as a housekeeping gene (1.8̂(CtHPRT−CtGene)) Statistical analysis was performed by one way ANOVA with repeated measures, followed by Dunnett's multiple comparison post hoc test with p≦0.05 chosen as the level of significance.
Mice with targeted mutations in MyD88 (Kawai et al., 2001, supra; Toshchakov et al., 2002, supra) or TIRAP (Yamamoto et al., 2002, Nature 420, 324) retain the capacity to signal through the MyD88-independent pathway. […] Therefore, the first question we sought to address experimentally is whether interactions of the BB-loops of the TIR domains of these adapters affect protein interactions leading to gene expression. To this end, we designed cell permeable peptides whose sequences correspond to the BB-loops of each adapter molecule and measured the ability of each BP to interfere with the induction of immediate response genes induced via MyD88-dependent and independent pathways. […] All BB-loop-containing peptides exerted an inhibitory effect on LPS-induced expression of MyD88-dependent IL-1β and […], as well as MyD88-independent IFN-β and RANTES mRNA, as measured by real-time PCR (FIG. 1A).

Experiment [2] relates to TLR4 signaling (IRF-1 protein). The experiment in a line: LPS-induced upregulation of IRF-1 protein, SDS-PAGE/Western. The settings on record: 100 ng/ml LPS, 1.5 h. As to the method: (§2) FIG. 3. Effect of blocking peptides on activation of IRF-3 and IRF-1. […] Primary mouse macrophages were stimulated with 100 ng/ml of LPS. Seventeen μg of total protein was loaded per lane of the native gel. Other details are as described in the legend for FIG. 1.
(§3) SDS-PAGE and Western blot analysis were performed as described previously (Medvedev et al., 2001, J. Immunol. 167, 2257) with minor modifications. Antibodies for detection of activated MAPKs (pERK, pJNK and pP38) were purchased from Cell Signaling Technology (Beverly, Mass.). IRF-1 was detected using a rabbit polyclonal antibody from Santa-Cruz (Santa Cruz, Calif.). Antibody for detection of tyrosine-701 phosphorylated STAT1 was purchased from Zymed Laboratories (San Francisco, Calif.).
Importantly, MyD88 knockout macrophages are capable of inducing IRF-1 mRNA (Yamamoto et al., 2003, supra).

Experiment [3] concerns TLR4 signaling (IRF-3 dimerization). The experiment in a line: LPS-induced dimerization of IRF-3, native PAGE. The note with it: 100 ng/ml LPS, 1.5 hr. How it is done:
as §2
Native PAGE for detection of IRF-3 activation was performed with minor modifications (Iwamura et al., 2001, Genes Cells 6, 375). One×10^7 thioglycollate-elicited cells were plated into a 6 cm dish and washed with PBS to remove non-adherent cells. Primary macrophages were stimulated with 100 ng/ml of LPS for 1.5 hr and lysed in buffer containing 50 mM TRIS-HCl pH 7.5, 150 mM NaCl, 1 mM EDTA, 1% NP-40, 1 mM sodium orthovanadate and 1× Complete protease inhibitor cocktail (Roche, Mannheim, Germany). Lysates were mixed with native lysis buffer (Bio-Rad, Hercules, Calif.) supplemented with 1% deoxycholate. Fifteen to 20 μg protein per lane was electrophoresed on a non-reducing gel and immunoblotted. IRF-3 dimers and monomers were detected using rabbit anti-IRF-3 antibody (Zymed Laboratories) by Western analysis.
Interferon Regulatory Factors (IRFs) were first identified as important transcriptional mediators of the antiviral immune response (reviewed in Taniguchi et al., 2001, Annu. Rev. Immunol. 19, 623). Later, it was recognized that this family of transcription factors plays an essential role in signal transduction mediated by different TLRs. IRF-1 is regulated transcriptionally by signaling from different TLRs, as well as by cytokines induced by TLR engagement (e.g., IL-1, TNF, and IFN-β) (Fujita et al., 1989, Proc. Natl. Acad. Sci. USA 86, 9936). In contrast, IRF-3 is constitutively expressed in many cell types (Au et al., 1995, Proc. Natl. Acad. Sci. USA 92, 11675). Upon stimulation through TLR4 or TLR3, IRF-3 is phosphorylated at multiple sites in its C-terminus, and this modification enables it to dimerize and translocate to the nucleus where it targets IRF-3-responsive genes (Kawai et al., 2001, supra; Lin et al., 1999, Mol. Cell. Biol. 19, 2465).

The test system of experiment [4] is TLR4 signaling (LPS-induced phosphorylation of ERK, JNK, p38). Description: LPS-stimulated activation of MAPKs (pERK, pJNK, pP38), Western blot. The settings on record: for effect on LPS-induced activation (phosphorylation) of MAPKs (ERK, JNK): 40 μM, 1 h preincubation, LPS 10 ng/ml. How it is done: (§4) FIG. 2. Effect of blocking peptides on the LPS-stimulated activation of MAPKs and Tyr701 STAT-1. Ten μg of total protein was loaded per lane. A representative blot of three separate experiments is shown. Other details are given in the Materials and Methods section and legend for FIG. 1.
(§5) FIG. 4. Comparative effect of BPs on TLR2-vs. TLR4-mediated activation of MAPKs (A) and IL-1β mRNA expression (B). For Western blot analysis, 4.5 x10^6 primary macrophages were preincubated without or with 40 μM BP and stimulated for 30 min with LPS (10 ng/ml) or Pam3Cys (P3C; 150 ng/ml). The results shown are a representative blot of three separate experiments. Experimental details for FIG. 4B are the same as reported in the legend to FIG. 1A.
FIG. 5. Effect of mutated TRAM BB loop peptides on LPS-induced activation of ERK. Details of the experiment are as in legend for FIG. 4, except for the cells were preincubated with peptides only for 30 minutes.
as §3
Using antibodies specific for the phosphorylated (activated) forms of JNK, ERK, and p38, we next sought to examine the effect of BB-loop-containing inhibitory peptides on LPS-stimulated activation of MAPKs. LPS induces quick and transient activation of MAPKs in primary macrophages (FIG. 2A) that was not affected by the addition of CP. […] The TIRAP BP was the weakest BP; all MAPKs were activated in the presence of it, although to a lesser extent when compared to CP.

The test system of experiment [5] is TLR4 signaling (LPS-induced STAT-1 phosphorylation). Description: LPS-induced phosphorylation of STAT-1, Western blot. The note with it: 40 μM BP. As to the method: as §4, §3
Experiment [6] has as its system TLR2 signaling (Pam3Cys-induced IL-1β mRNA). The experiment in a line: Pam3Cys-induced cytokine mRNA expression, real-time PCR. The settings on record: 40 μM, Pam3Cys. How it is done:
as §5, §1
Similar to their effect on activation of MAPKs, BPs were much weaker inhibitors with respect to Pam3Cys- vs. LPS-induced expression of IL-1β mRNA.

For the sequence “RQIKIWFQNRRMKWKKIVFAEMPCGRLHLQ [TRAM-BP]”, the “inhibitory effect on LPS-induced expression of IL-1β, MIP-1β, IFN-β and RANTES mRNA” value (“inhibitory effect” for short) in experiment [1] is listed as “strongest”. For the same sequence, the “effect on LPS-induced upregulation of IRF-1 protein” value (from here on “effect on LPS-induced upregulation”) in experiment [2] was “strongest inhibitors”. The “inhibition of LPS-induced dimerization of IRF-3” value (“inhibition … of IRF-3” for short) in experiment [3] is on record as “significantly inhibited”. Also, the “effect on LPS-induced activation (phosphorylation) of MAPKs (ERK, JNK)” value (from here on “effect on LPS-induced activation”) in experiment [4] was “strongly blocked”. Also, in experiment [4] (peptide increased from 10 μM to 40 μM, LPS 10 ng/nl or 1 μg/ml), the “inhibition of phosphorylation of ERK whether or not 100-fold excess LPS was used” value is listed as “effectively inhibited”. Also, the “inhibition of LPS-induced Tyr701 phosphorylation of STAT-1” value (“inhibition … of STAT-1” for short) in experiment [5] is “strongly inhibited”.
Regarding “RQIKIWFQNRRMKWKKLQLRDAAPGGAIVS (TIRAP blocking peptide) [TIRAP-BP]”, the “inhibitory effect” value in experiment [1] is “consistently weakest”. For the same sequence, in experiment [2], the “effect on LPS-induced upregulation” value was “weakest”. Besides, the “inhibition … of IRF-3” value in experiment [3] is listed as “inhibition was not as complete”. Further, the “effect on LPS-induced activation” value in experiment [4] was “weakest BP”. In addition, the “inhibition … of STAT-1” value in experiment [5] is reported as “did not completely block”.
“RQIKIWFQNRRMKWKKVSDRDVLPGTCVWS (MyD88 blocking peptide) [MyD88-BP]”: the “inhibitory effect” value in experiment [1] is “comparable or only slightly less inhibitory”. For the same sequence, in experiment [1] (40 μM, LPS 10 ng/ml), the “IL-1β mRNA expression in LPS-stimulated cells, of the level detected in the presence of the CP” value is on record as below 5%. In experiment [2], the “effect on LPS-induced upregulation” value was “strongest inhibitors”. In experiment [3], the “inhibition … of IRF-3” value is “significantly inhibited”. In addition, in experiment [4], the “effect on LPS-induced activation” value is recorded as “strongly blocked”. In experiment [5], the “inhibition … of STAT-1” value is “highly effective”. Further, in experiment [6], the “IL-1β gene expression in Pam3Cys-stimulated cells, of control levels” value is recorded as “approximately 25%” and the “effect on Pam3Cys-induced expression of IL-1β mRNA” value is recorded as “statistically significant inhibitory effect”.
